Measured values from US20120009277A1, “METHOD FOR SELECTION OF NOVEL ANTI-CANCER HERBS USING CHEMINFORMATIC TOOLS” (priority 2010, published 2012).

How the values were obtained:
Type in all cases: cell-based
[1] = test system: A2780/cp (human ovarian carcinoma, resistant to cisplatin); experiment: MTT cytotoxicity assay on A2780/cp cells, single agents and cisplatin combinations; conditions: cisplatin alone, 24 hr
Method: (§1) Anticancer drug resistant cancerous cell lines; A2780/cp (human ovarian carcinoma, resistant to cisplatin) NCBI C454, ACHN (human renal adenocarcinoma) NCBI C206, and normal cell line HF2 (human fetal fibroblast) NCBI C336 herein used as a cell negative control are obtained from National Cell Bank of Iran, Pasture Institute of Iran (Tehran). These cells are maintained in RPMI 1640 medium supplemented with 10% FCS in a humidified incubator (37° C. and 5% CO2).
(§2) Cells are cultured in RPMI-1640 medium supplemented with 10% heat inactivated FCS, 2 mM glutamine, penicillin ([…]) and streptomycin (100 μg/ml) at 37° C. in an incubator containing 5% CO2.
(§3) Harvested cells with trypsin (0.25%) are counted by Neubauer slide and then are seeded into 96-well plates (104 cell/well). […] The insoluble formazan produced is dissolved in solution containing 100 μl DMSO (Dimethyl sulfoxide) and Optical Density (absorbance) is read against blank reagent with Multiwell scanning spectrophotometer (ELISA reader, Organon Tekninka, the Netherlands) at a wavelength of 545 nm. The percentage of cytotoxicity is calculated according to following equations: […]

[2] = test system: ACHN (human renal adenocarcinoma); experiment: MTT cytotoxicity assay on ACHN cells, single agents and doxorubicin combinations; conditions: doxorubicin alone, 24 hr
Method: as §1, §2, §3

[3] = test system: HF2 (human fetal fibroblast); experiment: MTT cytotoxicity assay on HF2 normal cells, single agents and doxorubicin combinations; conditions: doxorubicin alone, 24 hr
Method: as §1, §2, §3

Row | SMILES | IC50 [1] [µM] | IC50 [2] [µM] | IC50 [3] [µM]
1 | N.N.[Cl][Pt][Cl] [Cisplatin] | 42.5 |  | 
2 | COc1cccc2c1C(=O)c1c(O)c3c(c(O)c1C2=O)C[C@@](O)(C(=O)CO)C[C@@H]3O[C@H]1C[C@H](N)[C@H](O)[C@H](C)O1 [Doxorubicin] |  | 3.92 | 1.31
